The values that follow come from patent US8222430B2, “1-heterodiene derivative and harmful organism control agent” (priority 2008, dated 2012).

What is called mortality is the percentage killed.

Where two headings read alike, the source gives them in different places.

For series [1], the system named is Tetranychus urticae with organophosphate resistance. As to the kind of experiment: Confirmation of efficacy against Tetranychus urticae (bean seedlings, mortality). As to conditions: for mortality rate: 125 ppm, sprayed bean seedlings, female adults with organophosphate resistance, after three days, 25° C., humidity 65%.
Series [2] relates to Bemisia tabaci. Description: Confirmation of efficacy against Bemisia tabaci (sprayed detached tomato leaves, insect mortality). The series is classed as in vivo. As to conditions: 72 h, B type adults, after three days, 25° C., humidity 65%, read-out: mortality rate. The text has this: Detached tomato leaves were sprayed with the resulting chemical solution and air-dried. Then, the leaves were set on flasks in a manner that the surface of the leaves face upward. […] The test was repeated twice.

The test system of series [3] is Aphis gossypii. Description: Confirmation of efficacy against Aphis gossypii (cucumber seedlings, insect mortality). In kind it is in vivo. Conditions: 120 h, read-out: mortality rate. From the text:
Mortality was investigated after five days, and the insect mortality rate was obtained.
The test was repeated twice.

Series [4] concerns Pseudaletia separate. Description: Confirmation of efficacy against Pseudaletia separate (maize leaf soak, insect mortality). The series is classed as in vivo. Conditions: 120 h, maize leaves soaked 30 seconds, second-instar larvae, after five days, 25° C., humidity 65%, read-out: mortality rate. The text has this:
Maize leaves were soaked in the resulting chemical solution for 30 seconds and air-dried. Then the leaves were put on Petri dishes lined with a filter paper, followed by inoculating 5 second-instar larvae. […] Mortality was investigated after five days, and the insect mortality rate was obtained. The test was repeated twice.

[5] abbreviates: 125 ppm, cucumber seedlings parasitized with offspring, after five days, 25° C., humidity 65%.

Turning to `Clc1ccc(/N=C2\SC3C=CCCC3C\C2=C/Sc2ccccc2)cc1` (centres unmarked) [Compound 5a-5, (4-chloro-phenyl)-{3-[1-phenylsulfanyl-(E)-methylidene]-3,4,4a,5,6,8a-hexahydro-thiochromene-(2Z)-ylidene}-amine], the mortality at 125 ppm is 100% in series [1] (Tetranychus urticae, 72 h, read-out: mortality rate); 100% in series [2]; 100% in series [3]; 100% in series [4].
In the case of `Cc1ccc(/N=C2\OC3CCCCC3\C2=C/Sc2ccccc2)cc1` (centres unmarked) [Compound 5a-3], the mortality at 125 ppm in series [2] and in series [4] was 100% in each case.
Molecule `Cc1ccc(/N=C2\OC(C)CC\C2=C/Sc2ccccc2)cc1` (centres unmarked) [Compound 2a-83] showed a mortality rate in series [1] of 100%.
On the same count and under the same terms, the value for `Cc1ccc(/N=C2\OC(c3ccccc3)CC\C2=C/Sc2ccccc2)cc1` (centres unmarked) [Compound 2a-86] was 100%; that for `CCCC1CCC(=C\Sc2ccccc2)/C(=N/c2ccc(C)cc2)O1` (centres unmarked) [Compound 2a-84] was 100%.
As to `C(/Sc1ccccc1)=C1/CCCS/C1=N\c1ccccc1` [Compound 2a-1, (Z)—N-((E)-3-(phenylthiomethylene)tetrahydro-2H-thiopyran-2-ylidene) aniline], the mortality at 125 ppm in series [2], in series [3] (setting [5]) and in series [4] was 100% in each case.
As to `C(/Sc1ccccc1)=C1/CCS/C1=N\c1ccccc1` [Compound 1a-1, (Z)—N-((E)-3-(phenylthiomethylene)dihydrothiophen-2(3H)-ylidene)aniline], the mortality at 125 ppm in series [2] and in series [4] was 100% each time.
In series [1], `Cc1ccc(/N=C2\SCCC\C2=C/Sc2ccc(F)cc2)cc1` [Compound 2a-78] returned a mortality rate of 100%.
In series [1], `Cc1ccc(/N=C2\OC(C)(C)CC\C2=C/Sc2ccccc2)cc1` [Compound 2a-85] displayed a mortality rate of 100%.
Consider `Cc1ccc(/N=C2\OC3CCCCC3C\C2=C/Sc2ccccc2)cc1` (centres unmarked) [Compound 5a-1], for which the mortality at 125 ppm in series [2], in series [3] (setting [5]) and in series [4] was 100% each time.
Regarding `Cc1ccc(/N=C2\OCc3ccccc3\C2=C/Sc2ccccc2)cc1` [Compound 5a-2], in series [4], the mortality at 125 ppm was found to be 100%.
